Assay results from PMC12133303, “Characterisation of RNA guanine-7 methyltransferase (RNMT) using a small molecule approach” (Biochemical Journal, 2025).
Like-named read-outs stand apart in the source and are kept apart here. Blank lines part the entries; values can stand above or below the molecule they belong to.

Columns and labels:
Avi-HsRNMT-RAM = biological target: T1, Avi-HsRNMT-RAM (Homo sapiens, UniProt O43148); experiment: SPR binding to immobilised Avi-HsRNMT-RAM; details: for kon: read-out: ka
T1 construct: Both HsRNMT full-length proteins (1-476) in complex with HsRAM (1-90) (HsRNMT-RAM and Avi-HsRNMT-RAM); hexa-His tag (TEV-cleavable) (N, cleaved yes); made in house; host or cells: Escherichia coli BL21 (DE3), co-transformed with pCDFduet-BirA
Text: To elucidate the cap-binding mode, full-length HsRNMT in complex with activating subunit RAM (Avi-HsRNMT-RAM) was investigated by surface plasmon resonance (SPR). We first measured the kinetic and equilibrium binding constants (KD) for SAM (Figure 3A), SAH (Figure 3B), and Sinefungin (Figure 3C). The kinetics of binding for these compounds appear very similar with a rapid onset of binding reaching a steady state within a few seconds. The loss of binding on washing with buffer was very similar.
Studies of binding kinetics were performed on a Biacore™ 8K + instrument (GE Healthcare). […] Compounds were tested in duplicate in a three-fold, eight-point serial dilution series in immobilisation buffer supplemented with 1% DMSO, with a flow rate of 30 μL min^-1, a contact time of 60 s and a dissociation time of 120 s at 25°C.
All monitored binding resonance signals were referenced with responses from unmodified reference surfaces, corrected for bulk shifts arising from differences in DMSO concentrations between samples and running buffer (solvent correction) and blank-referenced. Analysis was performed using the Biacore™ Insight Evaluation Software 2.0 with data fitted using the Langmuir 1:1 model.
The full-length HsRNMT complexed with HsRAM 1–90 (Avi-HsRNMT-RAM) was immobilised onto a Series S high-affinity SA sensor chip via C-terminal Avi-tag capture in HBS-P + buffer (10 mM HEPES, 150 mM NaCl, 0.5 mM TCEP) to an immobilisation level of 2200 RU, and the titration was performed at 15°C.

HsRNMT-RAM [1] = biological target: T2, HsRNMT-RAM (Homo sapiens, UniProt O43148); experiment: Isothermal titration calorimetry (ITC); assay type: binding; parameters: For biochemical assays, full-length HsRNMT (1-476) was cloned in the pOPC bi-cistronic plasmid; His-MBP (TEV-cleavable) (cleaved yes); made in house; host or cells: Escherichia coli BL21 (DE3); details: for ΔG / ΔH / −TΔS: 25 mM HEPES pH7.5, 150 mM NaCl, 1 mM TCEP with 10 mM Sinefungin or SAH at 298°K; for Kd: protein pretreated with Sinefungin or SAH
Procedure: For both DDD1060606 and DDD1870799, we determined the enthalpic and entropic components of the free energy of binding to HsRNMT-RAM to guide both compound selection and the optimisation process. Note that all of the isothermal titration calorimetry (ITC) experiments were performed with protein pretreated with SAH or Sinefungin. We used cap as the reference ligand as it is widely accepted that ligands with more negative enthalpies of binding provide better starting points for lead optimisation. The interaction of cap with HsRNMT-RAM is enthalpically driven with an ΔH of −33.5 kcal/mol (Figure 9A) and net free energy change, ΔG of −8.4 kcal/mol (Figure 9B). Furthermore, we determined the binding affinities for DDD1060606 and DDD1870799 to HsRNMT-RAM.
[…] Working stock for ligands and protein complex was prepared at the required concentration by diluting the stocks with the dialysis buffer. The DMSO concentrations in the cell and syringe solutions were matched to 2.5% for the compound (DDD1060606 or DDD1870799) titrations. Experiments were performed using 13 injections of 3 μL of ligand using Malvern PEAQ-ITC system at 25°C, at 750 rpm with reference power set to 7 μcal/s. The thermograms were analysed using MicroCal PEAQ-ITC Analysis Software, blanked to ligand control and fit to One Set of Sites Model.

HsRNMT-RAM [2] = biological target: T2, HsRNMT-RAM; experiment: RapidFire mass spectrometry assay, inhibition dose response; assay type: biochemical; parameters: For biochemical assays, full-length HsRNMT (1-476) was cloned in the pOPC bi-cistronic plasmid; His-MBP (TEV-cleavable) (cleaved yes); made in house; host or cells: Escherichia coli BL21 (DE3); details: for IC50: 5 nM HsRNMT-RAM, 2 µM SAM, 2 µM cap, 60 minutes, 10 point 1:3 dilutions from 100 μM, read-out: pIC50 (negative logarithm of half-maximal inhibitory concentration [molar]) (converted)
HsRNMT-RAM [3] = biological target: T2, HsRNMT-RAM; experiment: Mode of inhibition experiments (RapidFire assay); details: for Ki: Ki (95% CI)
HsRNMT-RAM [4] = biological target: T2, HsRNMT-RAM; experiment: Km determinations (RapidFire Mass Spec assay); assay type: biochemical; parameters: For biochemical assays, full-length HsRNMT (1-476) was cloned in the pOPC bi-cistronic plasmid; His-MBP (TEV-cleavable) (cleaved yes); made in house; host or cells: Escherichia coli BL21 (DE3); details: SAM 40 to 0.08 µM, saturating cap (40 µM), 5 nM enzyme; mean of three experiments [95% CI]
Procedure: Experiments to determine the Km^app values were carried out using a two-fold dilution of cap or SAM from 40 to 0.08 µM and a saturating concentration (40 µM) of SAM (Km^app cap) or cap (Km^app SAM). HsRNMT-RAM was used at 5 nM. Data were analysed to calculate the initial velocity (V0). Km^app and Vmax values were determined by nonlinear regression analysis fitted to the Michaelis–Menten equation [46] using Sigmaplot Version 14.0.3.192.

[5] = SPR, ligand titrated in presence of SAH
[6] = SPR, ligand titrated in presence of Sinefungin (saturating, 1 µM), 15°C
[7] = SPR, no co-ligand, Langmuir 1:1 model
[8] = SPR, inhibitor titrated in presence of SAH
[9] = SPR, inhibitor titrated in presence of SAH, read-out: KD (kinetic)
[10] = SPR, inhibitor titrated in presence of SAH, read-out: KD (steady state)
[11] = SPR, inhibitor titrated in presence of SAM
[12] = SPR, inhibitor titrated, no co-ligand
[13] = SPR, no co-ligand, read-out: KD (kinetic)
[14] = SPR, no co-ligand, read-out: KD (steady state)

T1 sequence (O43148 whole entry): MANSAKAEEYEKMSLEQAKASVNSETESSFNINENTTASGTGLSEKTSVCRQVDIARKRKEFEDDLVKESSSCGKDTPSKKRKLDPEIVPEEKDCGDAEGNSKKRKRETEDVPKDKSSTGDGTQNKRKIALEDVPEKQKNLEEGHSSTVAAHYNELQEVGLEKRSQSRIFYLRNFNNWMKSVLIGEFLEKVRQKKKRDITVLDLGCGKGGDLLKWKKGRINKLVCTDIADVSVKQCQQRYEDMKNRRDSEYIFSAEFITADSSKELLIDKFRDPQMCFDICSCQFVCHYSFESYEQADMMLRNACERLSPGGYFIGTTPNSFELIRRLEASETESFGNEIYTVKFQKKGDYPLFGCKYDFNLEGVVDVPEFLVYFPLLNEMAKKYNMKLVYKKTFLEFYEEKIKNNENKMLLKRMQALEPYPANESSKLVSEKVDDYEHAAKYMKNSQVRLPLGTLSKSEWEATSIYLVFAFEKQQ
T1 sequence (Q9BTL3 1-90 partner limits assumed): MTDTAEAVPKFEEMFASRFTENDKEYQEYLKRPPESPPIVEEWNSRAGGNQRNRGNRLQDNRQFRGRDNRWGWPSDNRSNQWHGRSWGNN
T2 sequence (O43148 whole entry): as the sequence (O43148 whole entry) above
T2 sequence (Q9BTL3 1-90 partner limits assumed): as the sequence (Q9BTL3 1-90 partner limits assumed) above

SMILES: Nc1nc2c(ncn2[C@@H]2O[C@H](COP(=O)(O)OP(=O)(O)OP(=O)(O)OC[C@H]3O[C@@H](n4cnc5c(=O)[nH]c(N)nc54)[C@H](O)[C@@H]3O)[C@@H](O)[C@H]2O)c(=O)[nH]1 [Cap, G(5′)ppp(5′)G]
KD (kinetic) (Avi-HsRNMT-RAM; [5]): No binding
KD (steady state) (Avi-HsRNMT-RAM; [5]): No binding
Rmax (Avi-HsRNMT-RAM; [5]): No binding
ka (Avi-HsRNMT-RAM; [5]): No binding
kd (Avi-HsRNMT-RAM; [5]): No binding
KD (kinetic) (Avi-HsRNMT-RAM; SPR, ligand titrated in presence of SAH, listed as cap): No interaction
Rmax (Avi-HsRNMT-RAM; [6]): 11.8 RU
kd (Avi-HsRNMT-RAM; [6]): 0.025 s⁻¹
Kd (Avi-HsRNMT-RAM; SPR, ligand titrated in presence of Sinefungin (saturating, 1 µM), 15°C, read-out: KD (kinetic)): 20 nM
Kd (Avi-HsRNMT-RAM; SPR, ligand titrated in presence of Sinefungin (saturating, 1 µM), 15°C, read-out: KD (steady state)): 35 nM
kon (Avi-HsRNMT-RAM; [6]): 1.2e+06 M⁻¹ s⁻¹
KD (kinetic) (Avi-HsRNMT-RAM; SPR, no co-ligand): No binding
KD (steady state) (Avi-HsRNMT-RAM; SPR, no co-ligand): No binding
Rmax (Avi-HsRNMT-RAM; SPR, no co-ligand): No binding
ka (Avi-HsRNMT-RAM; [7]): No binding
kd (Avi-HsRNMT-RAM; [7]): No binding
KD (kinetic) (Avi-HsRNMT-RAM; SPR, no co-ligand, listed as cap): No interaction
ΔG (HsRNMT-RAM [1]): -8.4 kcal/mol
ΔH (HsRNMT-RAM [1]): -33.5 kcal/mol
−TΔS (HsRNMT-RAM [1]): 25.1 kcal/mol
Kd (HsRNMT-RAM [1]): 700 nM

SMILES: Nc1nc(O)c2ncn([C@@H]3O[C@H](COP(=O)(O)OP(=O)(O)NP(=O)(O)O)[C@@H](O)[C@H]3O)c2n1 [GMP-PnP, guanosine 5′-[β,γ-imido]triphosphate, reference compound]
Ki (HsRNMT-RAM [3]; Ki cap, against cap): 2300 nM
mode of inhibition with cap (HsRNMT-RAM [3]; against cap): competitive

SMILES: Nc1ncnc2c1ncn2[C@@H]1O[C@H](CSCC[C@H](N)C(=O)O)[C@@H](O)[C@H]1O [SAH, S-adenosylhomocysteine]
Rmax (Avi-HsRNMT-RAM; SPR, no co-ligand): 14.3 RU
kd (Avi-HsRNMT-RAM; [7]): 0.072 s⁻¹
Kd (Avi-HsRNMT-RAM; [13]): 19 nM
Kd (Avi-HsRNMT-RAM; [14]): 18 nM
kon (Avi-HsRNMT-RAM): 3.8e+06 M⁻¹ s⁻¹

SMILES: Nc1ncnc2c1ncn2[C@@H]1O[C@H](C[C@@H](N)CC[C@H](N)C(=O)O)[C@@H](O)[C@H]1O [Sinefungin, reference compound]
Ki (HsRNMT-RAM [3]; Ki SAM, against SAM): 6.8 nM
Ki (HsRNMT-RAM [3]; Ki cap, against cap): 104 nM
mode of inhibition with SAM (HsRNMT-RAM [3]; against SAM): competitive inhibition
mode of inhibition with cap (HsRNMT-RAM [3]; against cap): non-competitive inhibition
Rmax (Avi-HsRNMT-RAM; SPR, no co-ligand): 14.2 RU
kd (Avi-HsRNMT-RAM; [7]): 0.092 s⁻¹
Kd (Avi-HsRNMT-RAM; [13]): 77 nM
Kd (Avi-HsRNMT-RAM; [14]): 73 nM
kon (Avi-HsRNMT-RAM): 1.2e+06 M⁻¹ s⁻¹

SMILES: C[S+](CC[C@H](N)C(=O)[O-])C[C@H]1O[C@@H](n2cnc3c(N)ncnc32)[C@H](O)[C@@H]1O (stereo partly drawn) [SAM, S-adenosylmethionine]
Km (HsRNMT-RAM [4]): 1.6 µM
Rmax (Avi-HsRNMT-RAM; SPR, no co-ligand): 14.9 RU
kd (Avi-HsRNMT-RAM; [7]): 0.1 s⁻¹
Kd (Avi-HsRNMT-RAM; [13]): 79 nM
Kd (Avi-HsRNMT-RAM; [14]): 89 nM
kon (Avi-HsRNMT-RAM): 1.2e+06 M⁻¹ s⁻¹

The next lines start with the values.

inhibition of HsRNMT-RAM activity (HsRNMT-RAM [2]): > 80%
IC50 (HsRNMT-RAM [2]): 10000 nM
Ki (HsRNMT-RAM [3]; Ki SAM, against SAM): 3400 nM
Ki (HsRNMT-RAM [3]; Ki cap, against cap): 3300 nM
mode of inhibition with SAM (HsRNMT-RAM [3]; against SAM): Uncompetitive
mode of inhibition with cap (HsRNMT-RAM [3]; against cap): Uncompetitive
Rmax (Avi-HsRNMT-RAM; [8]): 13.3 RU
kd (Avi-HsRNMT-RAM; [8]): 0.45 s⁻¹
Kd (Avi-HsRNMT-RAM; [9]): 2500 nM
Kd (Avi-HsRNMT-RAM; [10]): 2300 nM
KD (kinetic) (Avi-HsRNMT-RAM; [11]): No binding
KD (steady state) (Avi-HsRNMT-RAM; [11]): No binding
Rmax (Avi-HsRNMT-RAM; [11]): No binding
ka (Avi-HsRNMT-RAM; [11]): No binding
kd (Avi-HsRNMT-RAM; [11]): No binding
KD (kinetic) (Avi-HsRNMT-RAM; [12]): No binding
KD (steady state) (Avi-HsRNMT-RAM; [12]): No binding
Rmax (Avi-HsRNMT-RAM; [12]): No binding
ka (Avi-HsRNMT-RAM; [12]): No binding
kd (Avi-HsRNMT-RAM; [12]): No binding
ΔG (HsRNMT-RAM [1]): -7.5 kcal/mol
ΔH (HsRNMT-RAM [1]): -6.2 kcal/mol
−TΔS (HsRNMT-RAM [1]): -1.3 kcal/mol
net enthalpic change ΔΔH (HsRNMT-RAM [1]; DDD1870799 in comparison with DDD1060606): -1.9 kcal/mol
Kd (HsRNMT-RAM [1]): 2900 nM
SMILES: O=C(Cc1ccc(F)cc1)N1CCCC(c2n[nH]c3nc(O)ccc23)C1 (stereo not drawn) [DDD1870799]

inhibition of HsRNMT-RAM activity (HsRNMT-RAM [2]): > 80%
IC50 (HsRNMT-RAM [2]): 3160 nM
Ki (HsRNMT-RAM [3]; Ki SAM, against SAM): 1600 nM
Ki (HsRNMT-RAM [3]; Ki cap, against cap): 1600 nM
mode of inhibition with SAM (HsRNMT-RAM [3]; against SAM): Uncompetitive
mode of inhibition with cap (HsRNMT-RAM [3]; against cap): Uncompetitive
Rmax (Avi-HsRNMT-RAM; [8]): 13.2 RU
kd (Avi-HsRNMT-RAM; [8]): 0.27 s⁻¹
Kd (Avi-HsRNMT-RAM; [9]): 1600 nM
Kd (Avi-HsRNMT-RAM; [10]): 1400 nM
KD (kinetic) (Avi-HsRNMT-RAM; [11]): No binding
KD (steady state) (Avi-HsRNMT-RAM; [11]): No binding
Rmax (Avi-HsRNMT-RAM; [11]): No binding
ka (Avi-HsRNMT-RAM; [11]): No binding
kd (Avi-HsRNMT-RAM; [11]): No binding
KD (kinetic) (Avi-HsRNMT-RAM; [12]): No binding
KD (steady state) (Avi-HsRNMT-RAM; [12]): No binding
Rmax (Avi-HsRNMT-RAM; [12]): No binding
ka (Avi-HsRNMT-RAM; [12]): No binding
kd (Avi-HsRNMT-RAM; [12]): No binding
ΔG (HsRNMT-RAM [1]): -7.5 kcal/mol
ΔH (HsRNMT-RAM [1]): -4.3 kcal/mol
−TΔS (HsRNMT-RAM [1]): -3.1 kcal/mol
entropic contribution Δ(TΔS) (HsRNMT-RAM [1]; DDD1060606 compared with DDD1870799): -1.8 kcal/mol
Kd (HsRNMT-RAM [1]): 3200 nM
SMILES: O=C(Cc1ccsc1)N1CCCC(c2n[nH]c3ncccc23)C1 (stereo not drawn) [DDD1060606]
